Each structure is given as a SMILES string. Bridge positions count the residues as written; N and C are the ends. Square brackets hold non-standard residues; d marks the D form. Peptide text beside a SMILES is read from it. * marks the point of attachment. ξ: configuration not given here. Phe(4-COOH) = N[C@@H](Cc1ccc(C(=O)O)cc1)C(=O)O; Bip = N[C@@H](Cc1ccc(-c2ccccc2)cc1)C(=O)O; Phe(3-Me) = Cc1cccc(C[C@H](N)C(=O)O)c1; Bta = N[C@@H](Cc1csc2ccccc12)C(=O)O; Val(3-OH) = CC(C)(O)[C@H](N)C(=O)O; hArg = N=C(N)NCCCC[C@H](N)C(=O)O; 4Pal = N[C@@H](Cc1ccncc1)C(=O)O; Cha = N[C@@H](CC1CCCCC1)C(=O)O; Cit = NC(=O)NCCC[C@H](N)C(=O)O; Thr(3ξ) = CC(O)[C@H](N)C(=O)O; 12Ado = NCCCCCCCCCCCC(=O)O; Carboxymethyl = O=C(O)C*; Orn = NCCC[C@H](N)C(=O)O; Aun = NCCCCCCCCCCC(=O)O; Dab = NCC[C@H](N)C(=O)O; Dap = NC[C@H](N)C(=O)O; AEEA = NCCOCCOCC(=O)O

In this experiment the target is T1, PD-1/PD-L1 interaction (PE-labeled human PD-L1-Ig binding to Jurkat cell line over-expressing human PD-1) (Homo sapiens, UniProt Q15116).
T1 construct: expressed in transfected cells; host or cells: Jurkat
T1 sequence (Q15116 25-288): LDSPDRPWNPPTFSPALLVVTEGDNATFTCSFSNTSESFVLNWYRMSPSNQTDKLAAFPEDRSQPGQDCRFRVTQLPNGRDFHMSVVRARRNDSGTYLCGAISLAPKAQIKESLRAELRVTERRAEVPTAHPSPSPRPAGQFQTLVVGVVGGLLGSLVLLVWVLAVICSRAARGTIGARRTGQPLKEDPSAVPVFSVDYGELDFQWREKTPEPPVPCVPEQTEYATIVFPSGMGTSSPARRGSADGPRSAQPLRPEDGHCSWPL
The experiment is described as follows: Jurkat-PD-1 Cell Binding High-Content Screening Assay (CBA). In kind it is cell-based. The settings on record: Jurkat cell line over-expressing human PD-1; PE-labeled PD-L1-Ig 20 nM final; read-out: Jurkat hPD1-PDL1 IC50. The gist of the method: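 Binding of fluorescent PD-L1-Ig (20 nM final) to Jurkat-PD-1 cells was measured by automated imaging after 1 h, following a 2 h compound pre-treatment at 37° C.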
With `CC(C)C[C@H]1NC(=O)[C@H](CCCN)NC(=O)[C@H](C(C)C)NC(=O)[C@H](Cc2ccc(-c3ccccc3)cc2)NC(=O)[C@H](C(C)C)NC(=O)[C@H](Cc2c[nH]c3ccccc23)NC(=O)[C@H](CC(=O)O)NC(=O)[C@H](Cc2ccc(OCC(=O)O)cc2)NC(=O)[C@H](CN)NC(=O)CSC[C@@H](C(=O)N[C@@H](C)C(=O)N[C@@H](CCN)C(=O)NCCCCCCCCCCC(=O)O)NC(=O)[C@H]([C@@H](C)O)NC(=O)[C@H](C(C)C)NC(=O)[C@H](CC2CCCCC2)NC(=O)[C@H](Cc2cnc[nH]2)NC1=O` [Compound 1082] ({CH2CO}-[Dap]Y(Carboxymethyl)DWV[Bip]V[Orn][dL]H[Cha]VTCA[Dab][Aun]-OH; thioether N-14), the IC50 was 24.7 nM.
For the molecule `CC(=O)NCCCC[C@@H]1NC(=O)[C@H](C(C)C)NC(=O)[C@H](CC2CCCCC2)NC(=O)[C@H](CCN)NC(=O)[C@@H](CC(C)C)NC(=O)[C@H](CCCN)NC(=O)[C@H](C(C)C)NC(=O)[C@H](Cc2ccc(-c3ccccc3)cc2)NC(=O)[C@H](C(C)C)NC(=O)[C@H](Cc2cccc(C)c2)NC(=O)[C@H](CC(=O)O)NC(=O)[C@H](Cc2ccc(OCC(=O)O)cc2)NC(=O)[C@H](C(C)O)NC(=O)CSC[C@@H](C(=O)N[C@H](CCC(N)=O)C(=O)NCCCCCCCCCCC(=O)O)NC1=O` (stereo partly drawn) [Compound 3447] ({CH2CO}-[Thr(3ξ)]Y(Carboxymethyl)D[Phe(3-Me)]V[Bip]V[Orn][dL][Dab][Cha]VK(Ac)C[dQ][Aun]-OH; thioether N-14), the IC50 stood at 10.5 nM.
As to `CC(C)C[C@H]1NC(=O)[C@H](CCCN)NC(=O)[C@H](Cc2ccc(O)cc2)NC(=O)[C@H](Cc2ccc(-c3ccccc3)cc2)NC(=O)[C@H](C(C)C)NC(=O)[C@H](Cc2csc3ccccc23)NC(=O)[C@H](CC(=O)O)NC(=O)[C@H](Cc2ccc(OCC(=O)O)cc2)NC(=O)[C@H](CN)NC(=O)CSC[C@@H](C(=O)N[C@@H](CCN)C(=O)NCCOCCOCC(=O)NCCCCCCCCCCC(=O)O)NC(=O)[C@H](CCCN)NC(=O)[C@H](C(C)C)NC(=O)[C@H](CC2CCCCC2)NC(=O)[C@H](CCN)NC1=O` [Compound 1304] ({CH2CO}-[Dap]Y(Carboxymethyl)D[Bta]V[Bip]Y[Orn][dL][Dab][Cha]V[Orn]C[Dab][AEEA][Aun]-OH; thioether N-14), the IC50 came out at 37.3 nM.
With `CC(C)C[C@H]1NC(=O)[C@H](CCCN)NC(=O)[C@H](Cc2ccc(O)cc2)NC(=O)[C@H](Cc2ccc(-c3ccccc3)cc2)NC(=O)[C@H](C(C)C)NC(=O)[C@H](Cc2c[nH]c3ccccc23)NC(=O)[C@H](CC(=O)O)NC(=O)[C@H](Cc2ccc(OCC(=O)O)cc2)NC(=O)[C@H](C(C)O)NC(=O)CSC[C@@H](C(=O)N[C@@H](CCN)C(=O)NCCCCCCCCCCC(=O)O)NC(=O)[C@H](CN)NC(=O)[C@H](C(C)O)NC(=O)[C@H](CC2CCCCC2)NC(=O)[C@H](CCN)NC1=O` (stereo partly drawn) [Compound 3667] ({CH2CO}-[Thr(3ξ)]Y(Carboxymethyl)DWV[Bip]Y[Orn][dL][Dab][Cha][Thr(3ξ)][Dap]C[Dab][Aun]-OH; thioether N-14), the IC50 is 37.4 nM.
`Cc1cccc(C[C@@H]2NC(=O)[C@H](CC(=O)O)NC(=O)[C@H](Cc3ccc(OCC(=O)O)cc3)NC(=O)[C@H](CCCNC(=N)N)NC(=O)CSC[C@@H](C(=O)N[C@@H](CCN)C(=O)NCCCCCCCCCCC(=O)O)NC(=O)[C@H](C(C)O)NC(=O)[C@H](C(C)C)NC(=O)[C@H](CC3CCCCC3)NC(=O)[C@H](CCN)NC(=O)[C@@H](CC(C)C)NC(=O)[C@H](CCCN)NC(=O)[C@H](Cc3ccc(OCC(=O)O)cc3)NC(=O)[C@H](Cc3ccc(-c4ccccc4)cc3)NC(=O)[C@H](CC(C)C)NC2=O)c1` (stereo partly drawn) [Compound 3387] ({CH2CO}-RY(Carboxymethyl)D[Phe(3-Me)]L[Bip]Y(Carboxymethyl)[Orn][dL][Dab][Cha]V[Thr(3ξ)]C[Dab][Aun]-OH; thioether N-14): the IC50 was 20.5 nM.
As for `Cc1cccc(C[C@@H]2NC(=O)[C@H](CC(=O)O)NC(=O)[C@H](Cc3ccncc3)NC(=O)[C@H](Cc3ccc(OCC(=O)O)cc3)NC(=O)CSC[C@@H](C(=O)N[C@@H](Cc3cnc[nH]3)C(=O)NCCCCCCCCCCC(=O)O)NC(=O)[C@H]([C@@H](C)O)NC(=O)[C@H](C(C)C)NC(=O)[C@H](CC3CCCCC3)NC(=O)[C@H](CCN)NC(=O)[C@@H](CC(C)C)NC(=O)[C@H](CCCN)NC(=O)[C@H](C(C)C)NC(=O)[C@H](Cc3ccc(-c4ccccc4)cc3)NC(=O)[C@H](C(C)C)NC2=O)c1` [Compound 1168] ({CH2CO}-Y(Carboxymethyl)[4Pal]D[Phe(3-Me)]V[Bip]V[Orn][dL][Dab][Cha]VTCH[Aun]-OH; thioether N-14), the figure is 147 nM; as for `CC(C)C[C@H]1NC(=O)[C@H](CCCN)NC(=O)[C@H](C(C)C)NC(=O)[C@H](Cc2ccc(-c3ccccc3)cc2)NC(=O)[C@H](C(C)C)NC(=O)[C@H](Cc2c[nH]c3ccccc23)NC(=O)[C@H](CC(=O)O)NC(=O)[C@H](Cc2ccc(C(=O)O)cc2)NC(=O)[C@H](Cc2ccc(OCC(=O)O)cc2)NC(=O)CSC[C@@H](C(=O)N[C@H](CO)C(=O)NCCOCCOCC(=O)N[C@@H](CCCN)C(=O)NCCCCCCCCCCCC(=O)O)NC(=O)[C@H](CO)NC(=O)[C@H](C(C)C)NC(=O)[C@H](CC2CCCCC2)NC(=O)[C@H](CCN)NC1=O` [Compound 3064] ({CH2CO}-Y(Carboxymethyl)[Phe(4-COOH)]DWV[Bip]V[Orn][dL][Dab][Cha]VSC[dS][AEEA][Orn][12Ado]-OH; thioether N-14), 32.1 nM.
`Cc1cccc(C[C@@H]2NC(=O)[C@H](CC(=O)O)NC(=O)[C@H](Cc3ccc(OCC(=O)O)cc3)NC(=O)[C@H](Cc3ccccc3)NC(=O)CSC[C@@H](C(=O)N[C@@H](CCN)C(=O)NCCCCCCCCCCC(=O)O)NC(=O)[C@H](CO)NC(=O)[C@H](C(C)(C)O)NC(=O)[C@H](CC3CCCCC3)NC(=O)[C@H](CCN)NC(=O)[C@@H](CC(C)C)NC(=O)[C@H](CCCN)NC(=O)[C@H](Cc3ccc(OCC(=O)O)cc3)NC(=O)[C@H](Cc3ccc(-c4ccccc4)cc3)NC(=O)[C@H](Cc3ccc(OCC(=O)O)cc3)NC2=O)c1` [Compound 3628] ({CH2CO}-FY(Carboxymethyl)D[Phe(3-Me)]Y(Carboxymethyl)[Bip]Y(Carboxymethyl)[Orn][dL][Dab][Cha][Val(3-OH)]SC[Dab][Aun]-OH; thioether N-14): the IC50 amounted to 23 nM.
Take `CC(C)C[C@H]1NC(=O)[C@H](CCCN)NC(=O)[C@H](Cc2ccc(O)cc2)NC(=O)[C@H](Cc2ccc(-c3ccccc3)cc2)NC(=O)[C@H](C(C)C)NC(=O)[C@H](Cc2c[nH]c3ccccc23)NC(=O)[C@H](CC(=O)O)NC(=O)[C@H](Cc2ccc(O)cc2)NC(=O)[C@H](Cc2ccncc2)NC(=O)CSC[C@@H](C(=O)N[C@@H](CCN)C(=O)NCCCCCCCCCCC(=O)O)NC(=O)[C@H]([C@@H](C)O)NC(=O)[C@H](C(C)C)NC(=O)[C@H](CC2CCCCC2)NC(=O)[C@H](CCN)NC1=O` [Compound 2743] ({CH2CO}-[4Pal]YDWV[Bip]Y[Orn][dL][Dab][Cha]VTC[Dab][Aun]-OH; thioether N-14): the IC50 amounted to 97.6 nM.
In the case of `CC(C)C[C@H]1NC(=O)[C@H](CCCCN)NC(=O)[C@H](C(C)C)NC(=O)[C@H](Cc2ccc(-c3ccccc3)cc2)NC(=O)[C@H](C(C)C)NC(=O)[C@H](Cc2c[nH]c3ccccc23)NC(=O)[C@H](CC(=O)O)NC(=O)[C@H](Cc2ccc(OCC(=O)O)cc2)NC(=O)[C@H](CCCCNC(=N)N)NC(=O)CSC[C@@H](C(=O)NCCOCCOCC(=O)N[C@@H](CCCCN)C(=O)NCCCCCCCCCCC(=O)O)NC(=O)[C@H](CO)NC(=O)[C@H](C(C)C)NC(=O)[C@H](CC2CCCCC2)NC(=O)[C@H](CC(N)=O)NC1=O` [Compound 3129] ({CH2CO}-[hArg]Y(Carboxymethyl)DWV[Bip]VK[dL]N[Cha]VSC[AEEA]K[Aun]-OH; thioether N-14) it was 53.4 nM.
For `CC(C)C[C@@H]1NC(=O)[C@H](Cc2c[nH]c3ccccc23)NC(=O)[C@H](CC(=O)O)NC(=O)[C@H](Cc2ccc(C(=O)O)cc2)NC(=O)[C@H](Cc2ccc(OCC(=O)O)cc2)NC(=O)CSC[C@@H](C(=O)NCCOCCOCC(=O)NCCCCCCCCCCC(=O)O)NC(=O)[C@H](CCCNC(=N)N)NC(=O)[C@H](C(C)C)NC(=O)[C@H](CC2CCCCC2)NC(=O)[C@H](CCN)NC(=O)[C@@H](CC(C)C)NC(=O)[C@H](CCCN)NC(=O)[C@H](Cc2ccc(O)cc2)NC(=O)[C@H](Cc2ccc(-c3ccccc3)cc2)NC1=O` [Compound 1242] ({CH2CO}-Y(Carboxymethyl)[Phe(4-COOH)]DWL[Bip]Y[Orn][dL][Dab][Cha]VRC[AEEA][Aun]-OH; thioether N-14), the IC50 amounted to 33.3 nM.
In the case of `Cc1cccc(C[C@@H]2NC(=O)[C@H](CC(=O)O)NC(=O)[C@H](Cc3ccc(OCC(=O)O)cc3)NC(=O)[C@H](CN)NC(=O)CSC[C@@H](C(=O)N[C@@H](CCN)C(=O)NCCCCCCCCCCC(=O)O)NC(=O)[C@H]([C@@H](C)O)NC(=O)[C@H](C(C)C)NC(=O)[C@H](CC3CCCCC3)NC(=O)[C@H](CCN)NC(=O)[C@@H](CC(C)C)NC(=O)[C@H](CCCN)NC(=O)[C@H](Cc3ccc(O)cc3)NC(=O)[C@H](Cc3ccc(-c4ccccc4)cc3)NC(=O)[C@H](CC(C)C)NC2=O)c1` [Compound 2737] ({CH2CO}-[Dap]Y(Carboxymethyl)D[Phe(3-Me)]L[Bip]Y[Orn][dL][Dab][Cha]VTC[Dab][Aun]-OH; thioether N-14), the IC50 was 28.8 nM.
In the case of `Cc1cccc(C[C@@H]2NC(=O)[C@H](CC(=O)O)NC(=O)[C@H](Cc3ccc(OCC(=O)O)cc3)NC(=O)[C@H](CCCNC(=N)N)NC(=O)CSC[C@@H](C(=O)N[C@@H](CCN)C(=O)NCCCCCCCCCCC(=O)O)NC(=O)[C@H](C(C)O)NC(=O)[C@H](C(C)C)NC(=O)[C@H](CC3CCCCC3)NC(=O)[C@H](CCN)NC(=O)[C@@H](CC(C)C)NC(=O)[C@H](CCN)NC(=O)[C@H](CCCNC(N)=O)NC(=O)[C@H](Cc3ccc(-c4ccccc4)cc3)NC(=O)[C@H](C(C)C)NC2=O)c1` (stereo partly drawn) [Compound 3307] ({CH2CO}-RY(Carboxymethyl)D[Phe(3-Me)]V[Bip][Cit][Dab][dL][Dab][Cha]V[Thr(3ξ)]C[Dab][Aun]-OH; thioether N-14) it was 7.4 nM.
